Data as given in US6248744A, “Method for the treatment of pain, including chronic and female specific pain” (priority 2000, dated 2001).

How the values were obtained:
rats and mice = conditions: cited from earlier work
[1] = tested on: ganglionic nicotinic receptors; conditions: agonist of ganglionic nicotinic receptors; cited from earlier work
[2] = tested on: central nicotinic receptor subtypes; conditions: cited from earlier work
animal studies = conditions: cited from earlier work
[3] = tested on: male and female Sprague Dawley rats; test: Latency to hindpaw withdrawal from a focused light heat source after intrathecal injection; assay type: in vivo, rat; conditions: for maximum possible analgesic effect: radiant heat paw withdrawal
Method: Trans-metanicotine was administered via intrathecal catheters inserted in male and female Sprague Dawley rats such that their tips were in the upper lumbar region. Analgesia was determined as an increase in the latency to withdrawal of the hindpaw from a focused light heat source. To prevent injury, duration of 30 seconds was not exceeded. The latency to paw withdrawal was determined both before and after intrathecal injection of trans-metanicotine in these rats, and the data were expressed as % maximum possible effect.

[4] = tested on: male and female Sprague Dawley rats; test: Intraplantar capsaicin mechanical hyperalgesia, hindpaw withdrawal threshold with von Frey filaments, intrathecal injection; assay type: in vivo, rat; conditions: for average % reduction in withdrawal threshold over the 2 hours after capsaicin injection: % change from pre-capsaicin threshold, capsaicin 30 μg intraplantar, 50 μg i.t.
Method: Adult male and female Sprague Dawley rats were prepared with insertion of intrathecal catheters as described above. Capsaicin (8-methyl-N-vanillyl nonamide) was prepared in a concentration of 30 μg in 10 μl. Briefly, capsaicin powder was first dissolved in Tween 80, then in isotonic saline and heated to 70° C. The solution obtained was filtered and stored in sterile glass vials. Each group of rats represents 6 males and 6 females tested at the same time and each animal received only one injection in the left plantar surface of the hindpaw. Each animal was lightly anesthetized under halothane and immediately after immobility, received intradermal capsaicin, 30 μg injected through a 28 G needle, in the center of the plantar surface. This dose was chosen because it produces mechanical hyperalgesia lasting at least 2 hours (Gilchrist, H. D., Allard, B. L., and Simone, D. A. Enhanced withdrawal responses to heat and mechanical stimuli following intraplantar injection of capsaicin in rats. Pain 1996;67: 179-188).
Hindpaw withdrawal thresholds were tested before capsaicin injection and every 30 minutes thereafter for 2 hours, using von Frey filaments and the up-down method described above. Care was taken to avoid direct contact of the injection point when measuring withdrawal threshold with the filaments. Intrathecal saline, or (E)-N-methyl-4-(3-pyridinyl)-3-butene-1-amine(50 μg) was injected prior to capsaicin.
Intraplantar injection of capsaicin produced a rapid onset, sustained reduction in withdrawal threshold in both sexes. However, male and female control animals differed in withdrawal threshold at baseline and after capsaicin, and the sexes were therefore compared by % change from pre-capsaicin threshold. By this analysis, the average % reduction in withdrawal threshold over the 2 hours after capsaicin injection was 74+/-5.3% in females and 64+/-6.7% in males (p=0.47, NS).

neuropathic rat hindlimb = test: Neuropathic pain model (injury of spinal nerves L5 and L6), allodynia measured with von Frey filaments, intrathecal injection; assay type: in vivo; conditions: one week after nerve injury
Text: Analgesic potency of compounds of the present invention can also be tested in animal models of neuropathic or neurogenic pain. One such model resembles the human condition termed causalgia or reflex sympathetic dystrophy (RSD) secondary to injury of a peripheral nerve. This condition is characterized by hyperesthesia (enhanced sensitivity to a natural stimulus), hyperalgesia (abnormal sensitivity to pain), allodynia (hypersensitivity and pain to normally non-painful stimuli, either thermal or tactile), and spontaneous burning pain. In humans, neuropathic pain tends to be chronic and may be debilitating.
Briefly, in the model used, rats are subjected to a surgical procedure, described by Kim et al. (Kim, S. H. and Chung, J. M. (1992) Pain 50:355-363), designed to reproducibly injure peripheral nerves (spinal nerves L5 and L6). These rats develop a hyperesthetic state, which can be measured, using one or more paradigms known in the art. Here, allodynia was measured by stimulation of neuropathic rat hindlimb using nylon filaments having graded degrees of stiffness.
Sex differences in response to (E)-N-methyl-4-(3-pyridinyl)-3-butene-1-amine were tested using the assay described above. Hypersensitivity to light touch (withdrawal threshold to application of calibrated von Frey filaments) was documented one week later. […]

Structure (SMILES): Clc1ccc(C2CC3CCC2N3)cn1 (stereo not drawn) [Epibatidine]
- analgesic potency relative to morphine (rats and mice): three orders of magnitude higher than morphine
- cardiorespiratory effects [1]: cardiorespiratory effects similar to those of nicotine

Structure (SMILES): CNCC/C=C/c1cccnc1 [Metanicotine]
- selectivity for central nicotinic receptor subtypes compared to peripheral ganglionic and muscular nicotinic receptors [2]: high selectivity
- antinociceptive effect (animal studies): dose dependent antinociceptive effect

Structure (SMILES): CNCC/C=C/c1cccnc1 [trans-metanicotine, (E)-N-methyl-4-(3-pyridinyl)-3-butene-1-amine]
- maximum possible analgesic effect ([3]; female rats, i.t. injection): 45%
- antinociceptive response in females relative to males ([3]; i.t. injection, females vs males): twice as great
- duration of the antinociceptive response ([3]; male and female rats, i.t. injection): about 10 minutes
- effect at 60 μg compared with 20 μg (ceiling effect) ([3]; male and female rats, i.t., 60 μg): failed to be more effective
- dose dependence of the effect on paw withdrawal latency to a radiant heat stimulus ([3]; male and female rats, i.t., up to a dose of 20 μg): dose dependent inhibition of paw withdrawal latency
- maximum possible analgesic effect ([3]; male rats, i.t. injection): 20%
- average % reduction in withdrawal threshold over the 2 hours after capsaicin injection ([4]; female rats): 74+/-5.3%
- analgesia in the capsaicin model, comparison of the sexes ([4]; male and female rats, 50 μg i.t. prior to capsaicin): produced analgesia in this model of pain which was similar between the sexes
- average % reduction in withdrawal threshold over the 2 hours after capsaicin injection ([4]; male rats): 64+/-6.7%
- return of the level of sensitivity to presurgery levels (mean ±SEM) (neuropathic rat hindlimb; female rats, intrathecal, 100 μg): 50±4%
- effect on hypersensitivity to light touch (von Frey withdrawal threshold) (neuropathic rat hindlimb; male rats, intrathecal injection): no effect
